ChEMBL document CHEMBL1201862, “PubChem BioAssay data set” (2004)
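1) Cells in 96-well plates. 2) Compound, 48 h, 5 concentrations. 3) Linear interpolation between surrounding doses. 4) Unreached endpoint = highest concentration. The concentration for 50% growth inhibition is given as GI50.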 Active and inactive are the calls of the source. No stated cut-off is given here; in the data, active = GI50 up to about 1.1 µM and inactive = higher.

Columns and labels:
Test in all cases: NCI-60 cell line screen, 48 h
[1] = tested on: A498
[2] = tested on: ACHN
[3] = tested on: CAKI-1
[4] = tested on: COLO 205
[5] = tested on: DLD-1
[6] = tested on: DU-145
[7] = tested on: HOP-62
[8] = tested on: Hs-578T
[9] = tested on: K562
[10] = tested on: KM-20L2
[11] = tested on: M19-MEL
[12] = tested on: MCF7
[13] = tested on: MDA-MB-231
[14] = tested on: MDA-MB-435
[15] = tested on: MDA-N
[16] = tested on: OVCAR-5
[17] = tested on: PC-3
[18] = tested on: T47D
[19] = tested on: TK-10

Measured: GI50

CC1CC2C3CCC4=CC(=O)C=CC4(C)C3(F)C(O)CC2(C)C1(O)C(=O)COP(=O)(O)O (centres undefined)
inactive: [1] > 100 µM | [2] > 100 µM | [3] > 100 µM | [4] > 100 µM | [5] > 100 µM | [6] > 100 µM | [7] > 100 µM | [8] > 100 µM | [9] > 100 µM | [10] > 100 µM | [11] > 100 µM | [12] > 100 µM | [13] > 100 µM | [14] > 100 µM | [15] 8.18 µM | [16] > 100 µM | [17] > 100 µM | [18] > 100 µM | [19] > 100 µM
